In ChEMBL document CHEMBL5120917, “Ferroptosis Inhibitory Aromatic Abietane Diterpenoids from Ajuga decumbens and Structural Revision of Two 3,4-Epoxy Group-Containing Abietanes” (J Nat Prod, 2022):
Activity calls are given as the source filed them. The rule behind the calls is not given here.

Experiments:
[1] = tested on: HT-22; assay: Anti-ferroptotic activity against RSL3-induced ferroptosis in […] HT-22 cells assessed as cell viability at 1 uM measured after 24 hrs by MTT assay; format: functional; details: read-out: Activity
[2] = Cytotoxicity against […] HT-22 cells assessed as reduction in cell viability measured after 24 hrs by MTT assay; format: toxicity, cell-based; details: mouse
[3] = tested on: HT-22; assay: Anti-ferroptotic activity against RSL3-induced ferroptosis in […] HT-22 cells assessed as cell viability measured after 24 hrs by MTT assay; format: functional, cell-based; details: Mus musculus, HT-22, 24 h
[4] = Antioxidant activity assessed as DPPH radical scavenging activity at 100 uM measured for 30 mins by microplate spectrophotometric analysis; format: functional
[5] = Metal chelating activity assessed as Fe2+-compound complex formation by UV-visible spectrophotometry
[6] = tested on: HT-22; assay: Reduction in lipid ROS accumulation in RSL-3 treated […] HT-22 cells assessed as fluorescence intensity incubated for 4 hrs by C11-BODIPY staining based flow cytometry analysis; format: functional, cell-based; details: Mus musculus, dose 25-100 nM
[7] = tested on: HT-22; assay: Reduction in cytosolic ROS accumulation in RSL-3 treated […] HT-22 cells assessed as fluorescence intensity incubated for 4 hrs by carboxy-H2DCFDA staining based flow cytometry analysis; format: functional, cell-based; details: Mus musculus, dose 25-100 nM
[8] = tested on: HT-22; assay: Reversal of RSL-3 induced PTGS2 mRNA expression in […] HT-22 cells incubated for 4 hrs by […] analysis; format: functional, cell-based; details: Mus musculus, dose 25-100 nM

Compound	viability at 1 µM [1] [%]	CC50 at 24 h [2] [µM]	EC50 [3] [µM]	Activity [4]	also measured
CC1=C(C)C2=CC(=O)[C@@]34O[C@@]3(C(=O)c3occ(C)c3C4=O)[C@@]2(C)CC1	< 50	> 40			
Cc1coc2c(O)c3c(c(O)c12)C(=O)C=C1[C@]3(C)CC[C@]2(C)O[C@]12C		> 40	0.348	Active	
CC1=C(C)C2=CC(=O)c3c(O)c4c(c(O)c3[C@@]2(C)CC1=O)OC[C@H]4C	< 50	> 40		Active	
CC1=C(C)C2=CC(=O)c3c(c(O)c4oc(C)cc4c3O)[C@@]2(C)CC1		> 40	0.526	Active	
CC(=O)N(O)CCCCCNC(=O)CCC(=O)N(O)CCCCCNC(=O)CCC(=O)N(O)CCCCCN					Activity [5]: Active
C[C@@H]1COc2c(O)c3c(c(O)c21)C(=O)C=C1[C@]3(C)CC[C@]2(C)O[C@]12C		> 40	0.406	Active	
CCOC(=O)c1ccc(NC2CCCCC2)c(N)c1			0.0812		
C=CCc1c(O)c2c(c(O)c1OC)[C@@]1(C)CCC(C)=C(C)C1=CC2=O		> 40	0.308	Active	
CC1=C(C)C2=CC(=O)[C@@]34O[C@@]3(C(=O)c3oc(C)cc3C4=O)[C@@]2(C)CC1	< 50	> 40			
CC1=C(C)C2=CC(=O)c3c(c(O)c4occ(C)c4c3O)[C@@]2(C)CC1		> 40	0.0561	Active	Activity [6]: Active; Activity [7]: Active; Activity [8]: Active
CC1=C(C)C2=CC(=O)c3c(O)c4c(c(O)c3[C@@]2(C)CC1)OC[C@H]4C		> 40	0.0762	Active	
C[C@@H]1COc2c(O)c3c(c(O)c21)C(=O)CC1C(C)(C)CCC[C@]31C (some centres not stated)	< 50	> 40			
